These results are taken from patent US20220218678A1, “USE OF 1-PHENYL-2-PYRIDINYL ALKYL ALCOHOL DERIVATIVES FOR TREATING CYSTIC FIBROSIS” (CHIESI FARMACEUTICI S.p.A., priority 2017, published 2022).

The conditions of data set [1]: diarrhea, weight loss, nausea, headache, insomnia and others; cited from earlier work.
Data set [2] addresses T1, CFTR (Homo sapiens, UniProt P13569, DEL508-508).
T1 construct: cells expressing endogenous ΔF508-CFTR; endogenous in cells; host or cells: CFBE41o− human CF bronchial epithelial cell line (gift from D. C. Gruenert), homozygous ΔF508
In words: Western Blot, total presence of CFTR protein in CFBE41o− cells. It is filed as cell-based. The following applies: 24 h exposure, VRT809 5 μM. How it is done: CFBE41o− and 16HBE14o− cells, respectively, were lysed in lysis buffer (50 mmol/L Tris, 150 mmol/L NaCl, 1 mmol/L EDTA, 1% Triton X-100 pH 7.4) containing protease inhibitors (Roche, Inc.). A total of 10 μg (16HBE14o−/CFBE41o−) total protein per lane was separated using 7.5% (v/v) polyacrylamide electrophoresis (PAGE) SDS gels and transferred onto nitro-cellulose membranes, that were probed with a monoclonal anti-CFTR antibody (Cell Signaling 2269; according to information provided by Cell Signaling produced by immunizing rabbits with a synthetic peptide corresponding to amino acid residues near the amino terminus of human CFTR) at a 1:500 dilution, overnight at 4° C. Membranes were re-probed with a monoclonal anti-actin (Sigma-Aldrich) to normalize for protein loading. The relative levels of CFTR were estimated by densitometry using the ImageJ program (http://rsb.info.nih.gov/ij/). The amount of band C (understood to be the fully glycosylated mature form of CFTR)) is calculated as a fraction of actin for the respective lane and reported as a fraction of the total (band C/actin). […] The values reported are expressed as means+/−SD (n=3). Data sets were compared by a t-test using GraphPad Prism. […]
FIG. 5. Presence of CFTR was evaluated by western blotting in human bronchial epithelial cell lines 16HBE14o− (non CF) and CFBE41o− (ΔF508/ΔF508) after 24 h exposure to CFTR corrector VRT809 (5 μM) in comparison with the two compounds CHF6001 and Roflumilast.
Top: average of several experiments; the relative levels of CFTR were estimated by densitometry using the ImageJ program (http://rsb.info.nih.gov/ij/). The native amount of band C is calculated as a fraction of actin for the respective lane and reported as a fraction of the total (band C/actin). The values reported are expressed as means+/−SEM (n=3). […]

In data set [3] the test system is CFTR. Briefly: Immunofluorescence staining of CFTR in CFBE41o− cells. It is filed as cell-based, human. The following applies: CFBE41o− cells treated for 24 h, different concentrations. How it is done: CFBE41o− and 16HBE14o− cells, respectively, were seeded on a glass slide and, after exposure to agent or vehicle, were washed twice with PBS 1× and fixed with paraformaldehyde 4% (PFA) for 30 min and stored in PBS 1× at 4° C. until immunostaining. The fixed cells were washed twice with PBS 1×, and treated for 3 minutes with […] NH4Cl at room temperature in order to quench the aldehyde group. After another washing step, the cells were permeabilized with TRITON X100 0.1% for 5 minutes and were blocked with a solution of 1% BSA for 30 minutes. The anti-CFTR antibody M3A7, raised against an epitope corresponding to residues 1197-1480 of human CFTR (Santa Cruz) was added at 1:100 dilution for 1 hour, then the cells were stained with secondary antibody anti IgG1 488 (1:1000, Santa Cruz) and Rhodamine Phalloidine (1:500) for another hour. Finally, the cells were subjected to DAPI (Sigma Aldrich) staining (1:2000) for 1 hour at RT, then the slides were analyzed by Leica DM6000M microscope with a 40× objective. Images were processed for brightness and contrast with Adobe Photoshop.
FIG. 6: Immunofluorescence staining performed on CFBE41o− cells treated for 24 h with VX809+VX770, CHF6001 and Roflumilast at different concentrations or vehicle (DMSO).

The target in another data set is T2, CFTR channel (Homo sapiens, UniProt P13569).
T2 construct: the TEER assay was performed with these agents on 16HBE14o− bronchial epithelial cells (BEC); endogenous in cells; host or cells: 16HBE14o− human bronchial epithelial cell line (provided by P. Davis)
Briefly: Transepithelial electrical resistance (TEER) assay on 16HBE14o− bronchial epithelial cells. Type of data set: cell-based. The following applies: 16HBE14o− cells, 10, 30 and 60 minutes; CHF6001 30 nM, Roflumilast 50 nM.

T1 sequence (P13569 with tags, fused parts or gaps DEL508-508): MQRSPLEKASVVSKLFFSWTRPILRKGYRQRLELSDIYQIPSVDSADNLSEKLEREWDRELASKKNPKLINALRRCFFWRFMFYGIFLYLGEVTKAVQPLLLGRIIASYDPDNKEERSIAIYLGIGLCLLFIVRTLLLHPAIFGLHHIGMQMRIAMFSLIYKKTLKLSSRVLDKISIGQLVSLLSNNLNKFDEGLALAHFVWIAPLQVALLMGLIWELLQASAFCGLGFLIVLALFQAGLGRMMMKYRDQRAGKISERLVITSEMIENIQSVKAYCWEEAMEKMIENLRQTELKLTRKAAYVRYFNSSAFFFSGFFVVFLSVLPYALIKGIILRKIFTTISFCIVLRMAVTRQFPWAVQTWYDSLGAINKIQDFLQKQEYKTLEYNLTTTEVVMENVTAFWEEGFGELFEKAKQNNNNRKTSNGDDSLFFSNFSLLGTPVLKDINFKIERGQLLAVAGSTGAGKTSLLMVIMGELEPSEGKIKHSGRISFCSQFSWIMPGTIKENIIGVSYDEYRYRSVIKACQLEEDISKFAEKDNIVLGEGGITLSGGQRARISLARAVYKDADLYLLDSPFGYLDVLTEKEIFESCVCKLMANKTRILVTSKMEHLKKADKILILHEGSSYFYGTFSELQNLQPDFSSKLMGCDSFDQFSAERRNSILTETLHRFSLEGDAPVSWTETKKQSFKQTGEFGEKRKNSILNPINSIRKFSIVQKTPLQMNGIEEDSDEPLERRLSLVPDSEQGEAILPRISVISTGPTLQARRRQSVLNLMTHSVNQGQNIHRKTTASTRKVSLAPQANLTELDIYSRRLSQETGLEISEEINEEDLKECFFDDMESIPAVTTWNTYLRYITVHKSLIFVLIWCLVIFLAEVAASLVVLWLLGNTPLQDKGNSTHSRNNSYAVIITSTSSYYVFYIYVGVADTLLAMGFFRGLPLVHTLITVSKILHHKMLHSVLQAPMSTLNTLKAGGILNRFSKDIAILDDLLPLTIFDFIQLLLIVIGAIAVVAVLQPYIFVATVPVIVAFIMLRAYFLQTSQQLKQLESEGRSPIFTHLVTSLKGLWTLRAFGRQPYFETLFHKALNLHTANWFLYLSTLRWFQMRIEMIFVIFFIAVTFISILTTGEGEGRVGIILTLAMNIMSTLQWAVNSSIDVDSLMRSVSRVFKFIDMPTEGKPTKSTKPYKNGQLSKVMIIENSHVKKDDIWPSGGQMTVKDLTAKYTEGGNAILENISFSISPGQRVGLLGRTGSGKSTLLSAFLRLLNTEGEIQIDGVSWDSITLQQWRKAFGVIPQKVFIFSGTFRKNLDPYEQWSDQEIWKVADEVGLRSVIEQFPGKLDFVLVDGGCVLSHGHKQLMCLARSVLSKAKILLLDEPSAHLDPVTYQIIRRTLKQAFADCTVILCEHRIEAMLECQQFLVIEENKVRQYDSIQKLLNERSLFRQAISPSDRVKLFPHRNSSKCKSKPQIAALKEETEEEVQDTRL
T2 sequence (P13569 whole entry): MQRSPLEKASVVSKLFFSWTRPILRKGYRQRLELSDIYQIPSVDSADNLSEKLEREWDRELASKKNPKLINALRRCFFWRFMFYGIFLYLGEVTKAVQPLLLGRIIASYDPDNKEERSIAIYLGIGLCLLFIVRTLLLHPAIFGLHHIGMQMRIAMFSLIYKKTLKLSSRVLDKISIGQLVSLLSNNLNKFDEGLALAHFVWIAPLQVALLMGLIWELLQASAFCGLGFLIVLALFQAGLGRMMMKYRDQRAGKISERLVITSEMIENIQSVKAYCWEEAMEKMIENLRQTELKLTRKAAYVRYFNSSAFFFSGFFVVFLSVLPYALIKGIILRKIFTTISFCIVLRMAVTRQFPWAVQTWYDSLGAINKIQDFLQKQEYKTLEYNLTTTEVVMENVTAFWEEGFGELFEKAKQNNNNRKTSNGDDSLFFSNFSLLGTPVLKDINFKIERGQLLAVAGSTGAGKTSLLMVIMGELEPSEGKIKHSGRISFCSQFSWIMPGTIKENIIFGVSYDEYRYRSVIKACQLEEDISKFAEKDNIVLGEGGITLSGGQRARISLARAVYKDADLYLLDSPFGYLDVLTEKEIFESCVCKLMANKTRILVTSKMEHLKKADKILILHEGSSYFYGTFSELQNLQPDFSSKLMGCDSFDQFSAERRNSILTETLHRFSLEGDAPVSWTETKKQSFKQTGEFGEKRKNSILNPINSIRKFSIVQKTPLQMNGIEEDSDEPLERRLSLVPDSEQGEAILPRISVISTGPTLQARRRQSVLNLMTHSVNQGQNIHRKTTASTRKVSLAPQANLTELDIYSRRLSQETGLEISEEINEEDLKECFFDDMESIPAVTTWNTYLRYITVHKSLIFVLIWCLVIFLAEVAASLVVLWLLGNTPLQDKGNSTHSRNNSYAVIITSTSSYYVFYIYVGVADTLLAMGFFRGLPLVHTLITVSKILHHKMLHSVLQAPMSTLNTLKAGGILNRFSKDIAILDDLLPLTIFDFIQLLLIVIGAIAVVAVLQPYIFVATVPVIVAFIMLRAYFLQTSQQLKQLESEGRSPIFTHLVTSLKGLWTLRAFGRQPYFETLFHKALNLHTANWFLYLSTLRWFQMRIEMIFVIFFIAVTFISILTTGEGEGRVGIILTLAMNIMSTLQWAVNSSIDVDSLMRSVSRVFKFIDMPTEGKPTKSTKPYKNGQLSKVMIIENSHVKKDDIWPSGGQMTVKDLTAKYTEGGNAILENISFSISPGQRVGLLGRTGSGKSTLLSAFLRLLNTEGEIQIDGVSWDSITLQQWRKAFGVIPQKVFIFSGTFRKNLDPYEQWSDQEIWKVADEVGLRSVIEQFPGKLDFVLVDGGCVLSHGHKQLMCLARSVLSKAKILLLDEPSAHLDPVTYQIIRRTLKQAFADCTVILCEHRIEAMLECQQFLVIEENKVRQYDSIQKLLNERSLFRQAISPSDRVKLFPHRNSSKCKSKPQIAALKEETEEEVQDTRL

In the case of `O=C(Nc1c(Cl)cncc1Cl)c1ccc(OC(F)F)c(OCC2CC2)c1` [Roflumilast, 3-cyclo-propylmethoxy-4-difluoromethoxy-N-[3,5-di-chloropyrid-4-yl]-benzamide], in data set [1], the “frequency of common adverse effects in subjects” value is given as 1-10%. Besides, the “total presence of CFTR protein (band C/actin)” value on CFTR [2] is recorded as “up-regulation of CFTR protein”. Also, the “presence of CFTR by immunofluorescence” value in the data set on CFTR [3] was “increase the presence of CFTR”. In addition, on CFTR channel, the “trans-epithelial electric resistance normalized to DMSO (set to 100%)” value was “decrease the electric resistance”.

Regarding `CS(=O)(=O)Nc1ccc(C(=O)OC(Cc2c(Cl)c[n+]([O-])cc2Cl)c2ccc(OC(F)F)c(OCC3CC3)c2)cc1OCC1CC1` (stereo not shown) [CHF6001, 3-Cyclopropylmethoxy-4-methanesulfonylamino-benzoic acid 1-(3-cyclopropylmethoxy-4-difluoromethoxy-phenyl)-2-(3,5-dichloro-1-oxy-pyridin-4-yl)-ethyl ester], the “total presence of CFTR protein (band C/actin)” value on CFTR [2] was “up-regulation of CFTR protein”. Besides, in the data set on CFTR [3], the “presence of CFTR by immunofluorescence” value is given as “increase the presence of CFTR”. The “trans-epithelial electric resistance normalized to DMSO (set to 100%)” value at CFTR channel is “decrease the electric resistance”.
